Assay results taken from US10398703B2, “Therapeutic compounds and uses thereof” (Kala Pharmaceuticals, Inc., priority 2013, dated 2019).
Where two headings read alike, the source gives them in different places.

What was measured:
[1] = Back of the eye drug exposure (PK) after topical instillation of compound MPP; assay type: in vivo; settings: rabbit, topical or ocular, 50 μL of 0.5% MPP formulation, MPP 0.5%, 50 μL topical BID 5 days, Dutch-belted rabbits, 8 mm punch
Text: Dutch-belted rabbits were used in these studies.
The portion of the retina and choroid collected and analyzed was an 8 mm round punch where the macula is located in humans.

[2] = Mobility of MPP nanoparticles in human cervicovaginal mucus (dark field microscopy); settings: low pH of human cervicovaginal mucus
Experimental: In order to determine whether the generated nanoparticles have reduced interactions with mucins and are therefore able to move within mucus without becoming trapped, particles were incubated with human cervicovaginal mucus (CVM) and observed via dark field microscopy. In a typical experiment, […] of the nanoparticle suspension was added to 20 μl of CVM. Observations were made in a minimum of three distinct and randomly selected areas of the CVM sample. Control particles with known behavior were used to qualify the CVM sample as appropriate for the assay. For all compounds (except compound 55) listed in Table 4, mobility in mucus was observed and therefore the nanoparticles were deemed to be effective MPP.

[3] = choroid, read-out: AUC0-last Choroid
[4] = choroid, read-out: Cmax Choroid
[5] = retina, read-out: AUC0-last Retina

AUC(0-t) [1, 3]	Cmax [1, 4]	AUC(0-t) [1, 5]	Cmax ([1]; retina, read-out: Cmax Retina)	solubility in CVM [2]	SMILES
5.4 µM·h	693 nM	0.915 µM·h	110 nM	–	COc1cc2c(Oc3ccc(NC(=O)Nc4cc(C)on4)c(Cl)c3)ncnc2cc1OCCCN1CCC2(CC1)COC2 [Compound 9]
2.45 µM·h	265 nM	0.308 µM·h	39 nM	–	COc1cc2c(Oc3ccc(NC(=O)Nc4cc(C)ccc4F)c(Cl)c3)ncnc2cc1OCCCN1CCC2(CC1)COC2 [Compound 12]
5.79 µM·h	574 nM	0.297 µM·h	33 nM	–	COc1cc2c(Oc3ccc(NC(=O)Nc4cc(C)ccc4F)c(Cl)c3)ccnc2cc1OCCCN1CCC2(CC1)COC2 [Compound 25]
–	–	–	–	soluble in the low pH of CVM	COc1cc2ncnc(Oc3ccc(NC(=O)Nc4ccc(CN5CCN(C)CC5)cc4)c(Cl)c3)c2cc1OC [Compound 55]
